Key:
EV71 strain BrCr = assay: Cytopathic effect (CPE) reduction antiviral assay against EV71 in RD cells (MTS/PMS readout); assay type: cell-based, human enterovirus 71; settings: for EC50: Enterovirus A, EV71 BrCr in RD cells, inhibition of virus-induced cell death, MTS/PMS, at least three independent dose-response curves; for SI (Selectivity Index): SI = CC50/EC50; for SI (Selectivity Index) / increase of SI relative to BAPR: EV71 BrCr, RD cells
Description: (§1) (Table 2). As previously mentioned, modifications of the N^6-substituent (linker) of the BAPR scaffold led to a remarkable increase of selectivity. Here, we produced a series of BAPR analogues to evaluate the effect of the fluorination of BAPR on the replication of EV71. A cytopathic effect (CPE) reduction assay was performed with the newly synthetized analogues (compounds 5–11) in rhabdomyosarcoma (RD) cells. BAPR, N^6-isopenthenyladenosine, and N^6-furfuryladenosine were included in the screening, and the toxicity of all of the aforementioned compounds was evaluated in parallel on treated-uninfected cells.
An EV71 BrCr laboratory-adapted strain was used at a low multiplicity of infection (MOI) in a standardized antiviral assay. Briefly, freshly harvested rhadbdosarcoma (RD) cells were seeded in a 96-well plate (2 × 10^4 cells/well) and incubated at 37 °C in 5% CO2. The next day, a serial dilution of the compounds was prepared in assay medium and added to the RD cells. Then, the cells were supplemented with the viral suspension. […] Subsequently, the antiviral effect was quantified using a colorimetric readout with 3-(4,5-dimethylthiazol-2-yl)-5-(3-carboxymethoxyphenyl)-2-(4-sulfophenyl)-2H-tetrazolium/phenazine methosulfate (MTS/PMS method), and the concentration of compound at which a 50% inhibition of virus-induced cell death would be observed (EC50) was calculated from the antiviral dose-response curves. A similar assay setup was used to determine the adverse effect of the compound on uninfected, treated cells for the calculation of the CC50 (concentration of compound that reduces overall cell health with 50% as determined by the MTS/PMS method). […]

[1] = Toxicity on treated, uninfected RD cells (MTS/PMS readout); assay type: cell-based; settings: human, uninfected rhabdomyosarcoma (RD) cells, uninfected, treated RD cells; MTS/PMS; at least three independent dose-response curves
Description: as §1
(§2) An EV71 BrCr laboratory-adapted strain was used at a low multiplicity of infection (MOI) in a standardized antiviral assay. Briefly, freshly harvested rhadbdosarcoma (RD) cells were seeded in a 96-well plate (2 × 10^4 cells/well) and incubated at 37 °C in 5% CO2. The next day, a serial dilution of the compounds was prepared in assay medium and added to the RD cells. Then, the cells were supplemented with the viral suspension. […] Subsequently, the antiviral effect was quantified using a colorimetric readout with 3-(4,5-dimethylthiazol-2-yl)-5-(3-carboxymethoxyphenyl)-2-(4-sulfophenyl)-2H-tetrazolium/phenazine methosulfate (MTS/PMS method), and the concentration of compound at which a 50% inhibition of virus-induced cell death would be observed (EC50) was calculated from the antiviral dose-response curves. A similar assay setup was used to determine the adverse effect of the compound on uninfected, treated cells for the calculation of the CC50 (concentration of compound that reduces overall cell health with 50% as determined by the MTS/PMS method). The selectivity index (SI) was calculated as a ratio of […].

[2] = test system: rhabdomyosarcoma (RD) cells; assay: as above; assay type: cell-based; settings: for cytotoxicity (in words): uninfected RD cells, highest concentration tested
Description: as §1, §2

SMILES	EC50 (EV71 strain BrCr) [nM]	SI (Selectivity Index) (EV71 strain BrCr)	CC50 [1] [nM]	cytotoxicity (in words) [2]	CC50 ([2]; uninfected, treated RD cells, MTS/PMS, at least three independent dose-response curves) [nM]	increase of SI relative to BAPR (EV71 strain BrCr; relative to BAPR) [times]	improvement (gain) in potency as compared to BAPR (EV71 strain BrCr; EV71 replication in RD cells, relative to BAPR)
CC(C)=CCNc1ncnc2c1ncn2[C@@H]1O[C@H](CO)[C@@H](O)[C@H]1O [Compound 2, N^6-isopenthenyladenosine, reference compound]	1000 ± 200	6.0	6000 ± 600				
OC[C@H]1O[C@@H](n2cnc3c(NCc4cccc(F)c4)ncnc32)[C@H](O)[C@@H]1O [Compound 6, N^6-(3-fluorobenzyl) adenosine]	240 ± 90	26	6200 ± 1800				
OC[C@H]1O[C@@H](n2cnc3c(NCc4ccccc4C(F)(F)F)ncnc32)[C@H](O)[C@@H]1O [Compound 9, N^6-(2-trifluoromethylbenzyl) adenosine]	1000 ± 100	>235	> 235000	did not show any cytotoxicity			
OC[C@H]1O[C@@H](n2cnc3c(NCc4c(F)cccc4F)ncnc32)[C@H](O)[C@@H]1O [Compound 8, N^6-(2,6-difluorobenzyl) adenosine]	210 ± 10	>1210	> 250000		> 254000		
OC[C@H]1O[C@@H](n2cnc3c(NCc4ccc(C(F)(F)F)cc4)ncnc32)[C@H](O)[C@@H]1O [Compound 11, N^6-(4-trifluoromethylbenzyl) adenosine]	1000 ± 100	>235	> 235000	did not show any cytotoxicity			
OC[C@H]1O[C@@H](n2cnc3c(NCc4ccccc4F)ncnc32)[C@H](O)[C@@H]1O [Compound 5, N^6-(2-fluorobenzyl) adenosine]	300 ± 50	44	13300 ± 3700				
OC[C@H]1O[C@@H](n2cnc3c(NCc4cccc(C(F)(F)F)c4)ncnc32)[C@H](O)[C@@H]1O [Compound 10, N^6-(3-trifluoromethylbenzyl) adenosine]	68 ± 1	>3456	> 235000	did not show any cytotoxicity		230	four-fold
OC[C@H]1O[C@@H](n2cnc3c(NCc4ccco4)ncnc32)[C@H](O)[C@@H]1O [Compound 3, N^6-furfuryladenosine, reference compound]	1400 ± 300	5.6	7800 ± 3400				
OC[C@H]1O[C@@H](n2cnc3c(NCc4ccc(F)cc4)ncnc32)[C@H](O)[C@@H]1O [Compound 7, N^6-(4-fluorobenzyl) adenosine]	140 ± 50	19	2700 ± 900			1.25	
OC[C@H]1O[C@@H](n2cnc3c(NCc4ccccc4)ncnc32)[C@H](O)[C@@H]1O [Compound 1, N^6-benzyladenosine]	280 ± 50	15	4300 ± 1600				

Reference: article PMC6152005, “Fluorination of Naturally Occurring N^6-Benzyladenosine Remarkably Increased Its Antiviral Activity and Selectivity” (Molecules : A Journal of Synthetic Chemistry and Natural …, 2017)
